Source: patent publication US11945816B2, “Inhibitors of EGFR and/or HER2 and methods of use” (Dana-Farber Cancer Institute, Inc., priority 2017, dated 2024)

Columns and labels:
Assay type in all cases: cell-based
[1] = target: T1, HER2 InsYVMA (A775_G776insYVMA) transformed Ba/F3 cells (Homo sapiens, UniProt P04626, INS775YVMA); assay: Proliferation inhibition assay, HER2 InsYVMA transformed Ba/F3 cells; conditions: MTS assay, 72 hours
T1 construct: expressed in transfected cells; host or cells: Ba/F3
Method: (§1) Cell growth inhibition can be assessed by MTS assay or by Cell Titer Glo Luminescent Cell viability assay (Promega®). Cells are seeded and grow in culture plates before they are exposed to representative compounds of the application for various duration. The viability of the cells are then assessed. […] The growth curves can be fitted using a nonlinear regression model with sigmoidal dose response.
(§2) Cell growth inhibition was assessed by MTS assay for Ba/F3, DFCI58-229, and DFCI127c cells, or by Cell Titer Glo Luminescent Cell viability assay (Promega®) for DFC1362JC cells, 3000 Ba/F3 cells were seeded for per well in 96-well plates, and were exposed to representative compounds of the application (3.3 nM to 10 μM) for 72 hours. For DFCI58-229, DFCI127c, and DFC1362JC cells, 5000 cells were seeded per well. All experimental points included 6 to 12 wells. […] The growth curves were fitted using a nonlinear regression model with sigmoidal dose response.
(§3) Activities of representative compounds of the present application in inhibiting EGFR and HER2 were tested by MTS assay (for Ba/F3 cell, DFCI58-229 cell, and DFCI127c cells) or by CellTiter-Glot luminescent cell viability assay (for DFCI362JC cells). For assays with Ba/F3 cells, 3000 cells were seeded for per well in 96-well plates and were exposed to indicated compounds with a concentration of 3.3 to 10 μM for 72 hours. For assays with DFCI58-229 cell, DFCI127c cell, or DFCI362JC cell, 5000 cells were seeded per well in 96-well plates and were exposed to indicated compounds with a concentration of 3.3 to 10 μM for 72 hours.

[2] = target: T2, EGFR InsHH (Y764_V765insHH) transformed Ba/F3 cells (Homo sapiens, UniProt P00533, INS764HH); assay: Proliferation inhibition assay, EGFR InsHH transformed Ba/F3 cells; conditions: MTS assay, 72 hours
T2 construct: expressed in transfected cells; host or cells: Ba/F3
Method: as §1, §2, §3

[3] = target: T3, HER2 InsGSP (P780_Y781insGSP) transformed Ba/F3 cells (Homo sapiens, UniProt P04626, INS780GSP); assay: Proliferation inhibition assay, HER2 InsGSP transformed Ba/F3 cells; conditions: MTS assay, 72 hours, Table 9 key
T3 construct: expressed in transfected cells; host or cells: Ba/F3
Method: as §1, §2, §3

[4] = target: T4, EGFR InsH transformed Ba/F3 cells (Homo sapiens, UniProt P00533, DUP773-773); assay: Proliferation inhibition assay, EGFR InsH transformed Ba/F3 cells; conditions: MTS assay, 72 hours
T4 construct: expressed in transfected cells; host or cells: Ba/F3
Method: as §1, §2, §3

[5] = target: T5, EGFR InsNPG (D770_N771insNPG) transformed Ba/F3 cells (Homo sapiens, UniProt P00533, INS770NPG); assay: Proliferation inhibition assay, EGFR InsNPG transformed Ba/F3 cells; conditions: MTS assay, 72 hours
T5 construct: expressed in transfected cells; host or cells: Ba/F3
Method: as §1, §2, §3

[6] = target: T6, wild-type EGFR transformed Ba/F3 cells (Homo sapiens, UniProt P00533); assay: Proliferation inhibition assay, wild-type EGFR transformed Ba/F3 cells; conditions: MTS assay, 72 hours
T6 construct: expressed in transfected cells; host or cells: Ba/F3
Method: as §1, §2, §3

[7] = target: T7, wild-type HER2 transformed Ba/F3 cells (Homo sapiens, UniProt P04626); assay: Proliferation inhibition assay, wild-type HER2 transformed Ba/F3 cells; conditions: MTS assay, 72 hours
T7 construct: expressed in transfected cells; host or cells: Ba/F3
Method: as §1, §2, §3

[8] = target: T8, EGFR InsGY (D770delinsGY) transformed Ba/F3 cells (Homo sapiens, UniProt P00533, D770Y/INS769G); assay: Proliferation inhibition assay, EGFR InsGY transformed Ba/F3 cells; conditions: MTS assay, 72 hours
T8 construct: expressed in transfected cells; host or cells: Ba/F3
Method: as §1, §2, §3

[9] = target: T9, HER2 InsVC (G776delinsVC) transformed Ba/F3 cells (Homo sapiens, UniProt P04626, G776C/INS775V); assay: Proliferation inhibition assay, HER2 InsVC transformed Ba/F3 cells; conditions: MTS assay, 72 hours, Table 9 key
T9 construct: expressed in transfected cells; host or cells: Ba/F3
Method: as §1, §2, §3

[10] = target: T10, HER2 InsWLV transformed Ba/F3 cells (Homo sapiens, UniProt P04626, INS773WL/M774V); assay: Proliferation inhibition assay, HER2 InsWLV transformed Ba/F3 cells; conditions: MTS assay, 72 hours
T10 construct: expressed in transfected cells; host or cells: Ba/F3
Method: as §1, §2, §3

[11] = target: T11, EGFR InsSVD (D770_N771insSVD) transformed Ba/F3 cells (Homo sapiens, UniProt P00533, INS770SVD); assay: Proliferation inhibition assay, EGFR InsSVD transformed Ba/F3 cells; conditions: MTS assay, 72 hours
T11 construct: expressed in transfected cells; host or cells: Ba/F3
Method: as §1, §2, §3

[12] = target: T12, EGFR InsASV (V769_D770insASV) transformed Ba/F3 cells (Homo sapiens, UniProt P00533, INS769ASV); assay: Proliferation inhibition assay, EGFR InsASV transformed Ba/F3 cells; conditions: MTS assay, 72 hours
T12 construct: expressed in transfected cells; host or cells: Ba/F3
Method: as §1, §2, §3

T8 sequence (P00533 with tags, fused parts or gaps INS769G/D770Y): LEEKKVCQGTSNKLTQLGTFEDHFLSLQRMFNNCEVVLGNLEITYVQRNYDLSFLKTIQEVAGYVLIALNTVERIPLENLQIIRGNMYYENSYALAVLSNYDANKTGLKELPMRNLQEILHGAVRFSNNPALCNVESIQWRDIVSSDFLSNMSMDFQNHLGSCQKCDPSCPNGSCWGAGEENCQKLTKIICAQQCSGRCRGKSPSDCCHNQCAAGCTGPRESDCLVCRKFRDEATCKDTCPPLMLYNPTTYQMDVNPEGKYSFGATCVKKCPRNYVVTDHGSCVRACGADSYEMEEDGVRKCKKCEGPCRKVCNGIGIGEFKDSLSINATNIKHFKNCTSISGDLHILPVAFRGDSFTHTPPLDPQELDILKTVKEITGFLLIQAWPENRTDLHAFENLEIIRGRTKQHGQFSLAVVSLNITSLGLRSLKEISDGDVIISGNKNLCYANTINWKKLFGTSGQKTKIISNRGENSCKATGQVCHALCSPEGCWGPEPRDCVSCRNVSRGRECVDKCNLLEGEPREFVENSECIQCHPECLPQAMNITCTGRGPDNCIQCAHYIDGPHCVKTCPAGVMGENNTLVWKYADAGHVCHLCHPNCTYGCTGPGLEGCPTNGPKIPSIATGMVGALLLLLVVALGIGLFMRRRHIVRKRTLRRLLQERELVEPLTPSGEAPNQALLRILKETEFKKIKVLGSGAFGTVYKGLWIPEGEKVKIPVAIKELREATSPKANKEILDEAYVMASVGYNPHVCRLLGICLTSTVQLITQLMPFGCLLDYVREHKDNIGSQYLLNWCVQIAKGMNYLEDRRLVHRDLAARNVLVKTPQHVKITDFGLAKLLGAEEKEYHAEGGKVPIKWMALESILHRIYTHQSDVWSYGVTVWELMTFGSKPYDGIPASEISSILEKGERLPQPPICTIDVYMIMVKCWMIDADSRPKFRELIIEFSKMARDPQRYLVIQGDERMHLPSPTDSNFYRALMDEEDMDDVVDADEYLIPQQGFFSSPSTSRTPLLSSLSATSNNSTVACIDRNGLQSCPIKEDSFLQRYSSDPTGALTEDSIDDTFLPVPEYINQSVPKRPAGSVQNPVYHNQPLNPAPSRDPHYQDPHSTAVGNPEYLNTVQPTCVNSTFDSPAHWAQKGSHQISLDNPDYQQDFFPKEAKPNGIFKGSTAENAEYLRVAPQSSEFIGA
T9 sequence (P04626 with tags, fused parts or gaps INS775V/G776C): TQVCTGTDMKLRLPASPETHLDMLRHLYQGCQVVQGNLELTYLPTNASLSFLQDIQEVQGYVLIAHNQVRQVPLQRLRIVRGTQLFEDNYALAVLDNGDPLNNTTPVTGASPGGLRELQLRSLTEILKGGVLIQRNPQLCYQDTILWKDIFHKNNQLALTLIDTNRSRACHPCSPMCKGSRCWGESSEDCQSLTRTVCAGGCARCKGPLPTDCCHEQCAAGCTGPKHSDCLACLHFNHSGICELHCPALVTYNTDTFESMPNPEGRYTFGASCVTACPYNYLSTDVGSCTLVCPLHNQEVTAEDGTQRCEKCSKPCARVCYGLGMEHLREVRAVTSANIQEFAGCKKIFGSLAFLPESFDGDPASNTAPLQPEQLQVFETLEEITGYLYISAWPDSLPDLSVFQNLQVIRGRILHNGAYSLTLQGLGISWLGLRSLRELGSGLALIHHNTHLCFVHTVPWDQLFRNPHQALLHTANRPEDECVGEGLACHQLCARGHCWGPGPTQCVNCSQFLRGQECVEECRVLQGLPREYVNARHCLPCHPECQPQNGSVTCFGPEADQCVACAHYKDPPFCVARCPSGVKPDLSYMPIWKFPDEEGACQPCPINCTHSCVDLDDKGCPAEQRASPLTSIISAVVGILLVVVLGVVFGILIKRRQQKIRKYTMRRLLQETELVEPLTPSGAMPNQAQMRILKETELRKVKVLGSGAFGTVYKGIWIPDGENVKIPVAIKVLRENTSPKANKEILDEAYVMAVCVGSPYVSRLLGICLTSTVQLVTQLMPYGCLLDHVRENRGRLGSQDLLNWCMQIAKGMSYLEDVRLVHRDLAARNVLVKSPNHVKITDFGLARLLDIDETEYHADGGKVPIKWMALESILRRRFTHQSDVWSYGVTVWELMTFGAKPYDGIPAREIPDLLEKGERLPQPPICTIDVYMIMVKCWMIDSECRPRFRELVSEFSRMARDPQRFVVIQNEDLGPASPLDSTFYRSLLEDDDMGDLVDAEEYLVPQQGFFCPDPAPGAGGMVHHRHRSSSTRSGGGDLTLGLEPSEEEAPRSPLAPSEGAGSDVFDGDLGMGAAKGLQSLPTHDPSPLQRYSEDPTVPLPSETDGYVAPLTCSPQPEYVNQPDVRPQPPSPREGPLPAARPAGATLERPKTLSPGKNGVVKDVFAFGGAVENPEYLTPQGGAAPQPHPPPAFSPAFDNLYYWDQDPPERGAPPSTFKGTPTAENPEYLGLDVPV
T2 sequence (P00533 with tags, fused parts or gaps INS764HH): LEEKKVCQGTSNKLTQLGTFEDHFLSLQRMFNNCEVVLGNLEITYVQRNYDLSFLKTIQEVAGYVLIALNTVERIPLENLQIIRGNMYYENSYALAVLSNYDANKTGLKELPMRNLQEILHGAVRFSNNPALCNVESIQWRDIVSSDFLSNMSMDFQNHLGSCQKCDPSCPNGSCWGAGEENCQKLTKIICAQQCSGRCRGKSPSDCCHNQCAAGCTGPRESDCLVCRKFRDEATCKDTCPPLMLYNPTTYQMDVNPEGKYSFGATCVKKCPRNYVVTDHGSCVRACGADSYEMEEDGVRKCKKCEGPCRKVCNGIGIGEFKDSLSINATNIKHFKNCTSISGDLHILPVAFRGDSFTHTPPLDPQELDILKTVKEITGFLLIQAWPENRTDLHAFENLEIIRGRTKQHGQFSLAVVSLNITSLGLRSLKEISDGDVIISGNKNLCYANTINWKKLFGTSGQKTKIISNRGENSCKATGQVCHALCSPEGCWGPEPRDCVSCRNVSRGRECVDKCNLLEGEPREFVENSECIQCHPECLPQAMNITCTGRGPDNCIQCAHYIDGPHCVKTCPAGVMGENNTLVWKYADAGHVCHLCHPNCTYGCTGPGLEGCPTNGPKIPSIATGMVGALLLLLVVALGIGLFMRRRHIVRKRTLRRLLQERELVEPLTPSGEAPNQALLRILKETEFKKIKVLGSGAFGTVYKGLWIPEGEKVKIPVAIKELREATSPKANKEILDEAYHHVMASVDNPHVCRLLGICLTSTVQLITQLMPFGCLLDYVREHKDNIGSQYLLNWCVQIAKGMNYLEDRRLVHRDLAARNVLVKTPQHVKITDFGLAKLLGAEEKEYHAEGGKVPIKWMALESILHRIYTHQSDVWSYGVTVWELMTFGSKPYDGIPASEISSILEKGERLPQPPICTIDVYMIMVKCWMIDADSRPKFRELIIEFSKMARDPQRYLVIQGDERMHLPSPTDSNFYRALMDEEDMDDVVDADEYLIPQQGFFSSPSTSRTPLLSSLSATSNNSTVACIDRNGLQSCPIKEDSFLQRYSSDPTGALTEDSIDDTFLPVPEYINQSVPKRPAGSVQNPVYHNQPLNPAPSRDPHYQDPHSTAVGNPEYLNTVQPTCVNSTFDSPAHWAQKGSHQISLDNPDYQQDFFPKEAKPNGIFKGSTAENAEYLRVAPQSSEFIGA
T11 sequence (P00533 with tags, fused parts or gaps INS770SVD): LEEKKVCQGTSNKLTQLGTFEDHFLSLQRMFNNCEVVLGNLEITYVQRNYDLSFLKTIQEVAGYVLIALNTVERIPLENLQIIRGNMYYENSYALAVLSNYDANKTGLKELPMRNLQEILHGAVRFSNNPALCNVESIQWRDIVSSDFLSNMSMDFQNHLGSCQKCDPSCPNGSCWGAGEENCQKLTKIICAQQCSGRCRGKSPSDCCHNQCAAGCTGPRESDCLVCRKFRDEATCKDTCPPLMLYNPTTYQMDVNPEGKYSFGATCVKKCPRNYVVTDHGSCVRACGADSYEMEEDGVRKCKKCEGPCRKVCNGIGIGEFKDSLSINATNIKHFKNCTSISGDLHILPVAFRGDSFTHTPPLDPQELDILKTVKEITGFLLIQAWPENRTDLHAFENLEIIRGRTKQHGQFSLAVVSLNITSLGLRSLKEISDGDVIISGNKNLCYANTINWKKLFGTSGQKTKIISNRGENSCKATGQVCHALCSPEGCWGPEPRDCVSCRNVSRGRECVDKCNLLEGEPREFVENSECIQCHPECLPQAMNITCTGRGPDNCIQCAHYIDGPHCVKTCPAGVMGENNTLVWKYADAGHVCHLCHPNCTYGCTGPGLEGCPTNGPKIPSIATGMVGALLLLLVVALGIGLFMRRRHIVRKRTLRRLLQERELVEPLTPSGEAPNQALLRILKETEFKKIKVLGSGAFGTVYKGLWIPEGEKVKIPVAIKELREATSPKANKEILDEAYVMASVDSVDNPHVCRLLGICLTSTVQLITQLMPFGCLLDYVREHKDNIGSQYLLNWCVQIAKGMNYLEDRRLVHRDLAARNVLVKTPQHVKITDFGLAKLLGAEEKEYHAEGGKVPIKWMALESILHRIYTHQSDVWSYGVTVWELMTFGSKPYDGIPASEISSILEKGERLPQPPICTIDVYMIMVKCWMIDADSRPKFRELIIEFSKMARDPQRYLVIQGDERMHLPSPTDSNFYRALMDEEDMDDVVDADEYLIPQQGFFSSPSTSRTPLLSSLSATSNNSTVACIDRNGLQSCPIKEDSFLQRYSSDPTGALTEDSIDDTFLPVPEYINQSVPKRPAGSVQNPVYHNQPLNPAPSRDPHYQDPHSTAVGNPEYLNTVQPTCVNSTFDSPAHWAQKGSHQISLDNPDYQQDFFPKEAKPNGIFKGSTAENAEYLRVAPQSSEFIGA

| SMILES | EC50 ([1]; Table 9 key) [nM] | EC50 [2] [nM] | EC50 [3] [nM] | EC50 [4] [nM] | EC50 [5] [nM] | EC50 [6] [nM] | EC50 ([7]; Table 9 key) [nM] | EC50 [8] [nM] | EC50 [9] [nM] | EC50 ([10]; Table 9 key) [nM] | EC50 [11] [nM] | EC50 [12] [nM] | EC50 ([1]; Table 10 key) [nM] | EC50 ([7]; Table 10 key) [nM] | EC50 ([10]; Table 10 key) [nM] |
| --- | --- | --- | --- | --- | --- | --- | --- | --- | --- | --- | --- | --- | --- | --- | --- |
| C=CC(=O)Nc1cccc(-n2c(=O)c(Oc3ccc(F)cc3F)cc3cnc(Nc4ccc(N5CCN(C)CC5)cc4OC)nc32)c1 [Compound 6] | < 100 | < 200 | < 100 | < 200 | < 200 | < 200 | < 100 | < 200 | 100 to 250 | < 100 | < 200 | < 200 |  |  |  |
| C=CC(=O)NC1CCCC(n2c(=O)c(Oc3ccc(F)cc3F)cc3cnc(Nc4cnn(C)c4)nc32)C1 (stereo not shown) [Compound 23] | < 100 | < 200 | < 100 | 200 to 600 | < 200 | < 200 | < 100 | < 200 | < 100 | 100 to 250 | < 200 | < 200 |  |  |  |
| C=CC(=O)N1CCCC(n2c(=O)c(Oc3ccc(F)cc3F)cc3cnc(Nc4cnn(C)c4)nc32)CC1 (stereo not shown) [Compound 24] | < 100 | 200 to 600 | < 100 | 200 to 600 | < 200 | < 200 | < 100 | < 200 | < 100 | 100 to 250 | < 200 | < 200 |  |  |  |

Now from value to compound:

| EC50 ([1]; Table 9 key) [nM] | EC50 [2] [nM] | EC50 [3] [nM] | EC50 [4] [nM] | EC50 [5] [nM] | EC50 [6] [nM] | EC50 ([7]; Table 9 key) [nM] | EC50 [8] [nM] | EC50 [9] [nM] | EC50 ([10]; Table 9 key) [nM] | EC50 [11] [nM] | EC50 [12] [nM] | EC50 ([1]; Table 10 key) [nM] | EC50 ([7]; Table 10 key) [nM] | EC50 ([10]; Table 10 key) [nM] | SMILES |
| --- | --- | --- | --- | --- | --- | --- | --- | --- | --- | --- | --- | --- | --- | --- | --- |
| < 100 | < 200 | < 100 | 200 to 600 | < 200 | < 200 | < 100 | < 200 | 100 to 250 | 100 to 250 | < 200 | < 200 |  |  |  | C=CC(=O)Nc1cccc(-n2c(=O)c(Oc3ccc(F)cc3F)cc3cnc(Nc4ccc(N5CCC(N6CCN(C)CC6)CC5)cc4)nc32)c1 [Compound 7] |
| < 100 | < 200 | < 100 | < 200 | < 200 | < 200 | < 100 | < 200 | < 100 | < 100 | < 200 | < 200 |  |  |  | C=CC(=O)Nc1cccc(-n2c(=O)c(Oc3ccc(F)cc3F)cc3cnc(Nc4cn(C)nc4OCC)nc32)c1 [Compound 8] |
| < 100 | < 200 | < 100 | < 200 | < 200 | < 200 | < 100 | < 200 | 100 to 250 | 100 to 250 | < 200 | < 200 |  |  |  | C=CC(=O)Nc1cccc(-n2c(=O)c(Oc3ccc(F)cc3F)cc3cnc(Nc4cnn(C(F)F)c4)nc32)c1 [Compound 5] |
| < 100 | 200 to 600 | < 100 | 200 to 600 | < 200 | < 200 | < 100 | < 200 | 100 to 250 | 100 to 250 | < 200 | < 200 |  |  |  | C=CC(=O)Nc1cccc(-n2c(=O)c(Oc3ccc(F)cc3F)cc3cnc(Nc4cnn(C5CCN(C)CC5)c4)nc32)c1 [Compound 3] |
|  |  |  | 200 to 600 |  | < 200 |  | < 200 |  |  | < 200 |  | < 200 | < 200 | < 200 | C=CC(=O)Nc1cc(Nc2ncc3cc(Oc4ccc(F)cc4Cl)c(=O)n(C)c3n2)c(OC)cc1N(C)CCN(C)C [Compound 134] |
